Test results from JP2021024822A, “安定化されたトリメブチンマレイン酸塩含有固形製剤” (Kyoto Pharmaceutical Industries Ltd, priority 2019, dated 2021).

Test: Related substance A content of the trimebutine maleate drug substance used
Type: physicochemical
Conditions: drug substance used in this study

With `CCC(COC(=O)c1cc(OC)c(OC)c(OC)c1)(c1ccccc1)N(C)C` (stereo not shown) [トリメブチンマレイン酸塩] as the molecule, how does the “content of related substance A in the trimebutine maleate drug substance” value read?
Its value is 0.06%.
